# US12419896B2, “Compositions and dosage forms for oral delivery” (RHODES TECHNOLOGIES, priority 2018, dated 2025)
# Key:
# [1] = cited from earlier work
# [2] = Miscibility of sesame oil in 40% IPA/HFA 134a; format: physicochemical; conditions: based on 10% w/v dronabinol in sesame oil
# Procedure: In some embodiments, formulations deliver between 0.25 mg and 2 mg dose of dronabinol after application. Table 4 details the % w/w dronabinol required in the canister to achieve such doses for different actuator volumes available ([…]). The miscibility of sesame oil in 40% IPA/HFA 134a has been determined to be 7.2% w/w, equivalent to 0.8% dronabinol, based on 10% w/v dronabinol in sesame oil. Therefore, the dose of dronabinol (mg) produced from each of the difference actuator volumes based on a level of 0.8% w/w dronabinol in canisters has been presented in Table 5.
# [3] = most pharmacological tests; Ophthalmic Res. (1992) 24:142-149; cited from earlier work
# [4] = versus Δ^9-THC; oxidation to cannabinol, shelf life; cited from earlier work
Compound,Solubility in water [1],Level of dronabinol equivalent to the sesame oil miscibility limit [2] [%],Potency compared with Δ^9-THC [3],Stability compared with Δ^9-THC [4]
"CCCCCc1cc(O)c2c(c1)OC(C)(C)C1CCC(C)=CC21 (single isomer, unassigned; (-)) [dronabinol, (−)-trans-Δ^9-tetrahydrocannabinol]",insoluble,0.8,–,–
"CCCCCc1cc(O)c2c(c1)OC(C)(C)[C@@H]1CC=C(C)C[C@@H]21 (relative stereo) [Δ^8-THC, (−)-trans-Δ^8-tetrahydrocannabinol]",–,–,less potent,more stable
